These results are taken from PubChem BioAssay (NCI).

Test systems include 786-0 renal; DU-145 prostate; MOLT-4 leukemia; NCI-H460 lung; NCI/ADR-RES ovarian; OVCAR-8 ovarian; PC-3 prostate; SF-268 CNS; UACC-62 melanoma; MDA-MB-231 breast.
Common to all, as to test: NCI anticancer screen, dose series, 48 h

Several values for one entry are separate records, joined by “and”; a condition that tells them apart may be missing. Identical values can stand only once.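 Protocol summary: plate cells (96-well), add compound at 5 concentrations, incubate 48 h, interpolate endpoints linearly. The concentration for 50% growth inhibition is given as GI50. At the TGI there is no net growth.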

Consider `Cc1nccc2c3ccc(OCc4cn(-c5ccc(Br)cc5)nn4)cc3n(CCCc3ccccc3)c12`, for which the GI50 with 786-0 renal was 1.49 µM; with DU-145 prostate, 5.2 µM; with MOLT-4 leukemia, 5.55 µM; in the test with NCI-H460 lung, 3.03 µM; with NCI/ADR-RES ovarian it was 1.79 µM; with OVCAR-8 ovarian, 2.12 µM. Besides, the GI50 in the test with PC-3 prostate was 3.42 µM; with SF-268 CNS it was 2.17 µM; in the test on UACC-62 melanoma it was 2.46 µM. The TGI in the test with 786-0 renal is 3.13 µM; in the test on DU-145 prostate, > 100 µM; in the test on MOLT-4 leukemia, > 100 µM; with NCI-H460 lung it was > 100 µM; in the test with NCI/ADR-RES ovarian, 4.61 µM; in the test on OVCAR-8 ovarian it was 5.09 µM. In addition, the TGI was > 100 µM in the test with PC-3 prostate, 5.85 µM in the test with SF-268 CNS and 7.08 µM in the test on UACC-62 melanoma.

With `COc1cc2c(cc1OC)-c1c(c3ccc([N+](=O)[O-])cc3c(=O)n1CCCN=[N+]=[N-])C2=O`, the GI50 with 786-0 renal was 50.4 µM; in the test on DU-145 prostate it was 86.1 µM; with MDA-MB-231 breast, > 100 µM; in the test with MOLT-4 leukemia, 23.3 µM; in the test on NCI-H460 lung, 11.4 µM; in the test on NCI/ADR-RES ovarian it was 31.7 µM. Also, the GI50 in the test with OVCAR-8 ovarian was 40.9 µM; in the test on SF-268 CNS, 41.7 µM; in the test on UACC-62 melanoma it was 51.9 µM. Besides, the TGI with 786-0 renal, in the test on DU-145 prostate, in the test on MDA-MB-231 breast, in the test with MOLT-4 leukemia, with NCI-H460 lung and in the test on NCI/ADR-RES ovarian was > 100 µM each time. Also, the TGI in the test with OVCAR-8 ovarian, in the test on SF-268 CNS and in the test with UACC-62 melanoma was > 100 µM throughout.

Turning to `CCOC(=O)Nc1cc2c(c(N)n1)N=C(c1ccccc1)CN2`, the GI50 with 786-0 renal, in the test with DU-145 prostate, with MDA-MB-231 breast, in the test with NCI-H460 lung, in the test on PC-3 prostate and with SF-268 CNS was < 0.0001 µM each time. For the same molecule, the TGI with 786-0 renal was 25.9 µM; with MDA-MB-231 breast, 0.00463 µM; with NCI-H460 lung, 0.485 µM; in the test with OVCAR-8 ovarian it was > 100 µM; in the test with PC-3 prostate it was < 0.0001 µM; in the test with SF-268 CNS it was 34.8 µM.

For `CC(C)c1ccc(C(O)(C(=O)O)c2ccc(C(C)C)cc2)cc1`, the TGI with 786-0 renal, with DU-145 prostate, with MOLT-4 leukemia, in the test on NCI-H460 lung, in the test with NCI/ADR-RES ovarian and in the test with OVCAR-8 ovarian was > 100 µM throughout. Besides, the TGI was 51.1 µM with PC-3 prostate, > 100 µM with SF-268 CNS and > 100 µM in the test with UACC-62 melanoma.

Take `CCCCCCCCCCCCCC(=O)NO`: the TGI is 18.2 µM in the test with 786-0 renal; 29.6 µM in the test on DU-145 prostate; > 100 µM with MDA-MB-231 breast; > 49 µM in the test with MOLT-4 leukemia; 38.3 µM in the test with NCI-H460 lung; 50.7 µM with OVCAR-8 ovarian. In addition, the TGI with PC-3 prostate is 28.6 µM; in the test with SF-268 CNS, 26.9 µM; with UACC-62 melanoma, 11.5 µM.

Turning to `C[C@H]1[C@H](C)CC[C@]2(C(=O)O)CCC3(COC(=O)/C=C/c4ccc(O)cc4)C(=CCC4[C@@]5(C)CC[C@H](O)C(C)(C)C5CC[C@]43C)[C@H]12` (stereo partly specified), the TGI with 786-0 renal turned out to be 16 µM; with MOLT-4 leukemia it was 32.4 µM; with NCI-H460 lung it was 11.2 µM; in the test with OVCAR-8 ovarian, 26.5 µM; in the test with SF-268 CNS, 22.5 µM; in the test with UACC-62 melanoma it was 23 µM.

For the molecule `O=C(CCN1CCCC1)Nc1ccc2c(Nc3ccc(Br)cc3)c3ccccc3nc2c1`, the GI50 in the test on 786-0 renal was 1.5 µM; in the test on DU-145 prostate, 0.798 µM; with MDA-MB-231 breast, 1.57 µM; with NCI-H460 lung it was 0.337 µM; in the test on PC-3 prostate, 1.4 µM; in the test on SF-268 CNS, 1.33 µM. Further, in the test with UACC-62 melanoma, the GI50 was 1.64 µM. Also, the TGI with 786-0 renal was 3.02 µM; in the test on DU-145 prostate, 2.07 µM; with MDA-MB-231 breast it was 2.99 µM; with NCI-H460 lung, 1.55 µM; with PC-3 prostate, 3.04 µM; in the test on SF-268 CNS, 2.81 µM. The TGI in the test on UACC-62 melanoma was 3.12 µM.

As for `O=C(O)C1C2C=CC(O2)C1C(=O)NCc1ccncc1` (stereo unspecified), the TGI in the test on 786-0 renal, with DU-145 prostate, with MDA-MB-231 breast, in the test with NCI-H460 lung, with OVCAR-8 ovarian and in the test with PC-3 prostate was > 100 µM throughout. Further, the TGI in the test on SF-268 CNS and in the test on UACC-62 melanoma was > 100 µM throughout.

With `CC(Oc1ccc2c(=O)cc(-c3ccccc3)oc2c1)C(=O)O` (stereo unspecified), the TGI with 786-0 renal, in the test on MOLT-4 leukemia, with NCI-H460 lung, with OVCAR-8 ovarian, with SF-268 CNS and in the test with UACC-62 melanoma was > 100 µM throughout.

Take `Cl.[O-]c1cccc2cccnc12.[O-]c1cccc2cccnc12.[O-]c1cccc2cccnc12.[O-]c1cccc2cccnc12.[Ti+4]`: the GI50 is 0.567 µM in the test with 786-0 renal; 10.5 µM with DU-145 prostate; 1.26 µM in the test with MDA-MB-231 breast; 1.28 µM in the test on NCI-H460 lung; 0.243 µM in the test with NCI/ADR-RES ovarian; 0.779 µM in the test on OVCAR-8 ovarian. Moreover, the GI50 in the test on SF-268 CNS was 0.594 µM; with UACC-62 melanoma, 1.84 µM. Further, the TGI in the test with 786-0 renal was 4.41 µM; in the test with DU-145 prostate, > 100 µM; in the test with MDA-MB-231 breast, > 100 µM; with NCI-H460 lung, 10.2 µM; in the test with NCI/ADR-RES ovarian, 11.5 µM; in the test on OVCAR-8 ovarian, > 31.5 µM. Further, the figures for the TGI in the test on SF-268 CNS and with UACC-62 melanoma were > 100 µM and 14.6 µM, respectively.

On to `C=C1CCCC2OC(OC)CCC12` (stereo unspecified), for which the TGI with 786-0 renal, with MOLT-4 leukemia, in the test with NCI-H460 lung, with OVCAR-8 ovarian, in the test with SF-268 CNS and in the test with UACC-62 melanoma was > 100 µM each time.

`Cc1cc(C(=O)CC(Cl)=C(Cl)Cl)c(Cl)cc1Cl`: the GI50 was 22.1 µM in the test with 786-0 renal; 16 µM with DU-145 prostate; 23.4 µM with MDA-MB-231 breast; 23.8 µM in the test with NCI-H460 lung; 33.5 µM in the test on NCI/ADR-RES ovarian; 21.7 µM in the test with OVCAR-8 ovarian. Besides, the figures for the GI50 with SF-268 CNS and with UACC-62 melanoma were 20.9 µM and 18.4 µM, respectively. The TGI in the test with 786-0 renal is 42.1 µM; with DU-145 prostate, 40.4 µM; with MDA-MB-231 breast it was 46.2 µM; in the test on NCI-H460 lung it was 90.6 µM; in the test on NCI/ADR-RES ovarian, > 100 µM; in the test on OVCAR-8 ovarian, 46.3 µM. For the same molecule, the results for the TGI in the test on SF-268 CNS and in the test on UACC-62 melanoma were 55.8 µM and 39.3 µM, respectively.

`O=C(CC1(O)C(=O)Nc2c(Cl)cc(Cl)cc21)c1ccc([N+](=O)[O-])cc1` (stereo unspecified): the TGI in the test on 786-0 renal is > 100 µM; in the test with MOLT-4 leukemia it was > 100 µM; in the test on NCI-H460 lung, > 100 µM; with OVCAR-8 ovarian it was > 87.9 µM; in the test on SF-268 CNS it was > 100 µM; in the test on UACC-62 melanoma, > 53.6 µM.

Regarding `O=C(CO)CC(=O)C(=O)Nc1cccc(C(F)(F)F)c1`, the TGI in the test on 786-0 renal, in the test with MOLT-4 leukemia, in the test on NCI-H460 lung, with OVCAR-8 ovarian, with SF-268 CNS and in the test with UACC-62 melanoma was > 100 µM in each case.

For `C=C(C)C1CC=C(C)C(O)([C@@]2(O)C[C@H](C(=C)C)CC=C2C)C1` (stereo partly specified), the TGI in the test with 786-0 renal was 31.3 µM; with MOLT-4 leukemia, 43.9 µM; in the test on NCI-H460 lung it was 34.6 µM; with OVCAR-8 ovarian it was 35.5 µM; in the test on SF-268 CNS it was > 100 µM; in the test on UACC-62 melanoma, 55.9 µM.

`CCCCCC1CC=CC(NC(=O)OCc2ccccc2)C1/C=C/CCCC1OCCO1` (stereo unspecified): the TGI in the test on 786-0 renal, in the test on MOLT-4 leukemia, in the test on NCI-H460 lung, with OVCAR-8 ovarian, in the test with SF-268 CNS and in the test with UACC-62 melanoma was > 100 µM in each case.

For the molecule `C=C1C(=O)O[C@H]2C3OC3(C)CC/C=C(/C(=O)OC)[C@@H](OC(C)=O)[C@H](OC(=O)C3(C)OC3C)[C@H]12` (stereo partly specified), the GI50 is 1.65 µM and 362 nM and 1.26 µg/mL with 786-0 renal; 1.23 µM in the test with MDA-MB-231 breast; 216 nM and 0.323 µg/mL in the test on MOLT-4 leukemia; 3.13 µM and 3.6 µg/mL with NCI-H460 lung; 2.13 µM and 699 nM and 0.351 µg/mL in the test on OVCAR-8 ovarian; 2.99 µM in the test with PC-3 prostate. The GI50 is 2.44 µM and 3.42 µM and 4.97 µg/mL in the test with SF-268 CNS; 1.59 µM and 1.66 µg/mL in the test on UACC-62 melanoma. The TGI was 3.73 µM and 8.4 µM and 3.45 µg/mL with 786-0 renal; 29 µM in the test with DU-145 prostate; 5.9 µM and 4.71 µM with MDA-MB-231 breast; 938 nM and 1.17 µg/mL in the test with MOLT-4 leukemia; 11.1 µM and 9.89 µg/mL with NCI-H460 lung; 2.98 µM and 3.01 µg/mL in the test on OVCAR-8 ovarian. The TGI in the test on PC-3 prostate was 5.16 µM and 11.7 µM; with SF-268 CNS, 35.7 µM and 14.9 µg/mL; in the test on UACC-62 melanoma it was 3.01 µM and 3.64 µg/mL.

For `CC(=O)CCn1[nH]c(=O)c(Cl)c(Cl)c1=O`, the TGI with 786-0 renal, in the test on MOLT-4 leukemia, in the test on NCI-H460 lung, in the test with OVCAR-8 ovarian, with SF-268 CNS and with UACC-62 melanoma was > 100 µM throughout.

Regarding `O=C1C(c2ccccc2)=[N+]([O-])c2cc([N+](=O)[O-])ccc21`, the TGI in the test with 786-0 renal was determined as 63.3 µM; with MOLT-4 leukemia it was 51.6 µM; in the test with NCI-H460 lung it was 56.8 µM; in the test on OVCAR-8 ovarian it was 32.6 µM; in the test on SF-268 CNS it was 46.9 µM; in the test with UACC-62 melanoma, 26.9 µM.
